Assay [1] has as its target NL20 human bronchial epithelial cells expressing human Z-AAT (Homo sapiens (Human), UniProt P01009, E366K). As to the kind of experiment: AAT Function Assay (MSD Assay NL20-SI Cell Line). The settings on record: functionally active AAT (AAT-hNE complex, MSD) in supernatant of NL20 cells expressing human Z-AAT; read-out: NL20 Functional EC50. It is filed as cell-based. The method, boiled down:
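NL20 bronchial epithelial cells expressing Z-AAT, induced with 0.1 μM doxycycline, were treated with compound overnight. Functional AAT in supernatant was measured by complex formation with excess human neutrophil elastase, captured on anti-AAT plates, detected with Sulfo-tagged anti-elastase on MSD, and quantified against M-AAT standards (0.156–320 ng/mL).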

In assay [2] the target is purified Z-AAT protein from human plasma (Homo sapiens (Human), UniProt P01009, E366K). As to the kind of experiment: Biochemical Assay (Z-AAT Elastase Activity Assay). The settings on record: purified Z-AAT pre-incubated with compound 1 hour, then human neutrophil elastase and fluorescent substrate. The method, boiled down: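 Purified plasma Z-AAT (20 nM) preincubated with compounds 1 h at room temperature, then 3 nM human neutrophil elastase added in PBS + 0.01% BRIJ35 for 30 min to form suicide complex. Residual elastase activity read immediately by fluorescence after adding 300 μM MeOSuc-AAPV-AMC substrate solution.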
Chain of purified Z-AAT protein from human plasma (P01009 25-418 E366K limits assumed): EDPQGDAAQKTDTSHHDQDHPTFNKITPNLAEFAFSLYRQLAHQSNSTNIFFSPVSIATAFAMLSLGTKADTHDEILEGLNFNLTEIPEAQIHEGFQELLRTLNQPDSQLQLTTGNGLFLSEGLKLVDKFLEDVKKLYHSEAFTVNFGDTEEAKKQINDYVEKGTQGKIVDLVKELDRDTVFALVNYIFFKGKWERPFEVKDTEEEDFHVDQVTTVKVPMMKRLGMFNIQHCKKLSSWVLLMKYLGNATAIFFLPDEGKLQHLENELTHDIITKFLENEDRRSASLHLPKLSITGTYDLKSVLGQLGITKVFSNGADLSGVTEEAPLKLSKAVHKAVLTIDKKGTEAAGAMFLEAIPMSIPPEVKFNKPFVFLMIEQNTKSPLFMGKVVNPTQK

pEC50, pIC50: −log10 of the molar value.

Chain of NL20 human bronchial epithelial cells expressing human Z-AAT (P01009 25-418 E366K limits assumed): as above

In general, pEC50 refers to the EC50 on a negative log10 scale, so that one unit is a factor of ten. The pIC50 is −log10 of the IC50, conventionally taken in molar units. In the case of `Cc1cc(-n2c(C3CCOCC3)c([C@H]3C[C@@](CO)(C(=O)O)C3)c3cc(O)ccc32)ccc1F` [Compound 109], the pEC50 in assay [1] was below 5.70. Further, the negative-log IC50 (pIC50) in assay [2] is below 4.52.

With `O=C(O)[C@]1(CF)C[C@@H](c2c(C3CCOCC3)n(-c3ccc(F)c(Cl)c3)c3ccc(O)cc32)C1` [Compound 110], the pEC50 in assay [1] is below 5.70. The pIC50 in assay [2] was below 4.52.

As for `O=C(O)[C@]1(CF)C[C@H](c2c(C3CCOCC3)n(-c3ccc(F)c(Cl)c3)c3ccc(O)cc32)C1` [Compound 111], the pEC50 in assay [1] is below 5.70. The pIC50 in assay [2] was below 4.52.

Consider `O=C(O)[C@H]1C[C@H](c2c(C3CCOCC3)n(-c3cc(F)cc(F)c3)c3ccc(O)cc32)C1` [Compound 112], for which, in assay [1], the pEC50 was below 5.70. Moreover, in assay [2], the pIC50 is below 4.52.

In the case of `O=C(O)[C@H]1C[C@@H](c2c(C3CCOCC3)n(-c3cc(F)cc(F)c3)c3ccc(O)cc32)C1` [Compound 113], in assay [1], the pEC50 is below 5.70. Also, in assay [2], the pIC50 was below 4.52.

As for `O=C(O)[C@H]1C[C@H](c2c(C3CCOCC3)n(-c3ccc(F)c(Cl)c3)c3ccc(O)cc32)C1` [Compound 114], the pEC50 in assay [1] is 5.70 to 6.30. Besides, in assay [2], the pIC50 is below 4.52.

Regarding `O=C(O)[C@H]1C[C@@H](c2c(C3CCOCC3)n(-c3ccc(F)c(Cl)c3)c3ccc(O)cc32)C1` [Compound 115], the pEC50 in assay [1] is below 5.70. Besides, in assay [2], the pIC50 was below 4.52.

Turning to `O=C(O)[C@H]1C[C@H](c2c(C3CCOCC3)n(-c3ccc(F)c(F)c3)c3ccc(O)cc32)C1` [Compound 116], the pEC50 in assay [1] was below 5.70. The pIC50 in assay [2] is below 4.52.

Consider `O=C(O)[C@H]1C[C@@H](c2c(C3CCOCC3)n(-c3ccc(F)c(F)c3)c3ccc(O)cc32)C1` [Compound 117], for which the pEC50 in assay [1] was below 5.70. Also, the pIC50 in assay [2] was below 4.52.

Regarding `O=C(O)[C@]1(CF)C[C@@H](c2c(C3CCOCC3)n(-c3ccc(F)cc3)c3ccc(O)cc32)C1` [Compound 118], in assay [1], the pEC50 was below 5.70. Besides, the negative logarithm of the IC50 (pIC50) in assay [2] was below 4.52.

Consider `O=C(O)[C@]1(CF)C[C@H](c2c(C3CCOCC3)n(-c3ccc(F)cc3)c3ccc(O)cc32)C1` [Compound 119], for which the pEC50 in assay [1] is below 5.70. Further, the pIC50 in assay [2] was below 4.52.

Consider `COC[C@]1(C(=O)O)C[C@@H](c2c(C3CCOCC3)n(-c3ccc(F)c(C)c3)c3ccc(O)cc32)C1` [Compound 121], for which, in assay [1], the negative-log EC50 (pEC50) is below 5.70. For the same molecule, in assay [2], the pIC50 is below 4.52.

In the case of `Cc1cc(-n2c(C(C)C)c(CCC(=O)O)c3cc(O)ccc32)ccc1F` [Compound 122], the pEC50 in assay [1] is 5.70 to 6.30. Moreover, the pIC50 in assay [2] is below 4.52.

For `Cc1cc(-n2c(C3CCOCC3)c([C@H]3C[C@](C(=O)O)(C(F)F)C3)c3cc(O)ccc32)ccc1F` [Compound 123, cis-1-(difluoromethyl)-3-(1-(4-fluoro-3-methylphenyl)-5-hydroxy-2-(tetrahydro-2H-pyran-4-yl)-1H-indol-3-yl)cyclobutane-1-carboxylic acid], the pEC50 in assay [1] was below 5.70. Further, the pIC50 in assay [2] was below 4.52.

Consider `CC(C)c1c([C@H]2C[C@@H]2C(=O)O)c2cc(O)c(F)cc2n1-c1ccc(F)cc1` [Compound 125], for which, in assay [1], the negative logarithm of the EC50 (pEC50) was 5.70 to 6.30. Moreover, in assay [2], the pIC50 is below 4.52.

Take `Cc1cc(-n2c([C@H]3CCCO3)c([C@H]3C[C@@H]3C(=O)O)c3cc(O)ccc32)ccc1F` [Compound 126]: the pEC50 in assay [1] was below 5.70. Besides, the pIC50 in assay [2] is below 4.52.

Turning to `CCc1c([C@H]2C[C@@H]2C(=O)O)c2cc(O)ccc2n1-c1ccc(F)c(C)c1` [Compound 127], in assay [1], the pEC50 is below 5.70. The pIC50 in assay [2] was below 4.52.

For `Cc1cc(-n2c(C(C)C)c([C@H]3C[C@H]3C(=O)O)c3cc(O)ccc32)ccc1F` [Compound 128], in assay [1], the pEC50 is below 5.70. The pIC50 in assay [2] was below 4.52.

Consider `Cc1cc(-n2c(C3COC3)c([C@H]3C[C@@H]3C(=O)O)c3cc(O)ccc32)ccc1F` [Compound 131], for which the pEC50 in assay [1] is below 5.70. Further, the pIC50 in assay [2] was below 4.52.

On to `Cc1cc(-n2c(C3CC3)c([C@H]3C[C@@H]3C(=O)O)c3cc(O)ccc32)ccc1F` [Compound 132], for which, in assay [1], the pEC50 was below 5.70. The pIC50 in assay [2] was below 4.52.

For `Cc1cc(-n2c(C(C)C)c([C@H]3C[C@@H]3C(=O)O)c3cc(O)ccc32)ccc1F` [Compound 134], in assay [1], the pEC50 was 5.70 to 6.30. The negative-log IC50 (pIC50) in assay [2] was below 5.30.

For the molecule `Cc1cc(-n2c(C(C)C)c([C@@H]3C[C@H]3C(=O)O)c3cc(O)ccc32)ccc1F` [Compound 135], the negative-log EC50 (pEC50) in assay [1] was below 5.70. Moreover, the pIC50 in assay [2] was below 4.52.

On to `O=C(O)[C@H]1CC[C@H](c2c(C3CCOCC3)n(-c3ccc(F)c(F)c3)c3ccc(O)cc32)CC1` [Compound 137], for which the pEC50 in assay [1] is below 5.70. Moreover, the negative logarithm of the IC50 (pIC50) in assay [2] is below 4.52.

For the molecule `O=C(O)[C@H]1CC[C@@H](c2c(C3CCOCC3)n(-c3ccc(F)c(F)c3)c3ccc(O)cc32)CC1` [Compound 138], the pEC50 in assay [1] was below 5.70. For the same molecule, the pIC50 in assay [2] is below 4.52.

On to `Cc1cc(-n2c(C(F)(F)F)c([C@H]3C[C@](C)(C(=O)O)C3)c3cc(O)ccc32)ccc1F` [Compound 139, trans-3-(1-(4-fluoro-3-methylphenyl)-5-hydroxy-2-(trifluoromethyl)-1H-indol-3-yl)-1-methylcyclobutane-1-carboxylic acid], for which the pEC50 in assay [1] is 5.70 to 6.30. Further, the pIC50 in assay [2] is below 5.30.

As for `Cc1cc(-n2c(C(F)(F)F)c(C3CC4(CC(C(=O)O)C4)C3)c3cc(O)ccc32)ccc1F` (stereo not shown) [Compound 140, 6-(1-(4-fluoro-3-methylphenyl)-5-hydroxy-2-(trifluoromethyl)-1H-indol-3-yl)spiro[3.3]heptane-2-carboxylic acid], the pEC50 in assay [1] is 5.70 to 6.30. Besides, in assay [2], the pIC50 is below 5.30.

`CC(C)c1c([C@H]2C[C@H](C(=O)O)C2)c2cc(O)ccc2n1-c1ccc(F)c(F)c1` [Compound 141, trans-3-(1-(3,4-difluorophenyl)-5-hydroxy-2-isopropyl-1H-indol-3-yl)cyclobutane-1-carboxylic acid]: the pEC50 in assay [1] was 5.70 to 6.30. The pIC50 in assay [2] is below 5.30.

Take `CC(C)c1c([C@H]2C[C@@H](C(=O)O)C2)c2cc(O)ccc2n1-c1ccc(F)c(F)c1` [Compound 142, cis-3-(1-(3,4-difluorophenyl)-5-hydroxy-2-isopropyl-1H-indol-3-yl)cyclobutane-1-carboxylic acid]: the pEC50 in assay [1] is below 5.70. Besides, the negative logarithm of the IC50 (pIC50) in assay [2] was below 4.52.

Take `Cc1cc(-n2c(C3CCOCC3)c([C@H]3C[C@@H](C(=O)O)C3)c3cc(O)ccc32)ccn1` [Compound 143]: in assay [1], the pEC50 is below 5.70. Also, in assay [2], the pIC50 is below 4.52.

Turning to `Cc1cc(-n2c(C(C)C)c([C@H]3C[C@@H](C(=O)O)C3)c3cc(O)ccc32)ccn1` [Compound 144], the pEC50 in assay [1] is below 5.70. Further, the pIC50 in assay [2] is below 4.52.

Consider `Cc1cc(-n2c(C(C)C)c([C@H]3C[C@H](C(=O)O)C3)c3cc(O)ccc32)ccc1F` [Compound 145], for which the pEC50 in assay [1] is 5.70 to 6.30. For the same molecule, the pIC50 in assay [2] was below 5.30.

For `Cc1cc(-n2c(C(C)C)c([C@H]3C[C@@H](C(=O)O)C3)c3cc(O)ccc32)ccc1F` [Compound 146], the negative logarithm of the EC50 (pEC50) in assay [1] is 5.70 to 6.30. In addition, the pIC50 in assay [2] was below 4.52.

Regarding `Cc1cc(-n2c(C(C)C)c(C3CN(CC(=O)O)C3)c3cc(O)ccc32)ccc1F` [Compound 147], the pEC50 in assay [1] is below 5.70. The pIC50 in assay [2] was below 4.52.

In the case of `Cc1cc(-n2c(C(C)C)c(C3CC4(C3)CC(F)(C(=O)O)C4)c3cc(O)ccc32)ccc1F` (stereo not shown) [Compound 148, 2-fluoro-6-(1-(4-fluoro-3-methylphenyl)-5-hydroxy-2-isopropyl-1H-indol-3-yl)spiro[3.3]heptane-2-carboxylic acid], the pEC50 in assay [1] is above 6.30. Moreover, in assay [2], the pIC50 was above 5.70.

In the case of `Cc1cc(-n2c(C(C)C)c(C3CC4(C3)CC(F)(C(=O)O)C4)c3cc(O)ccc32)ccc1F` (stereo not shown) [Compound 149, 2-fluoro-6-(1-(4-fluoro-3-methylphenyl)-5-hydroxy-2-isopropyl-1H-indol-3-yl)spiro[3.3]heptane-2-carboxylic acid], the negative logarithm of the EC50 (pEC50) in assay [1] was 5.70 to 6.30. In assay [2], the pIC50 is 5.30 to 5.70.

`COC(C)(Cc1c(C(C)C)n(-c2ccc(F)c(C)c2)c2ccc(O)cc12)C(=O)O` (stereo not shown) [Compound 151, 3-(1-(4-fluoro-3-methylphenyl)-5-hydroxy-2-isopropyl-1H-indol-3-yl)-2-methoxy-2-methylpropanoic acid]: the negative logarithm of the EC50 (pEC50) in assay [1] is below 5.70. Besides, the negative logarithm of the IC50 (pIC50) in assay [2] is below 4.52.

With `Cc1cc(-n2c(C(C)C)c(CC(C)(O)C(=O)O)c3cc(O)ccc32)ccc1F` (stereo not shown) [Compound 152, 3-[1-(4-fluoro-3-methyl-phenyl)-5-hydroxy-2-isopropyl-indol-3-yl]-2-hydroxy-2-methyl-propanoic acid], the negative logarithm of the EC50 (pEC50) in assay [1] is below 5.70. Besides, the pIC50 in assay [2] was below 4.52.

With `Cc1cc(-n2c(C(C)C)c(CC(=O)O)c3cc(O)ccc32)ccc1F` [Compound 153, 2-(1-(4-fluoro-3-methylphenyl)-5-hydroxy-2-isopropyl-1H-indol-3-yl)acetic acid], the pEC50 in assay [1] is below 5.70. For the same molecule, the negative logarithm of the IC50 (pIC50) in assay [2] is below 4.52.

Take `Cc1cc(-n2c(C3CC3)c(C(Cc3ccccc3)C(=O)O)c3cc(O)ccc32)ccc1F` (stereo not shown) [Compound 156, 2-(2-cyclopropyl-1-(4-fluoro-3-methylphenyl)-5-hydroxy-1H-indol-3-yl)-3-phenylpropanoic acid]: the pEC50 in assay [1] was below 5.70. In addition, the pIC50 in assay [2] was below 4.52.

Take `CCC(C(=O)O)c1c(C)n(-c2ccc(F)c(C)c2)c2ccc(O)cc12` (stereo not shown) [Compound 158]: in assay [1], the pEC50 is below 5.70. In addition, the negative logarithm of the IC50 (pIC50) in assay [2] is below 4.52.

Turning to `Cc1cc(-n2c(C)c(C(C)C(=O)O)c3cc(O)ccc32)ccc1F` (stereo not shown) [Compound 159], the negative logarithm of the EC50 (pEC50) in assay [1] is below 5.70. Moreover, the pIC50 in assay [2] was below 4.52.
